The results in this text go back to patent US12110293B2, “Substituted triazolo quinoxaline derivatives” (GRÜNENTHAL GMBH, priority 2018, dated 2024).

Where only a bound is given, the exact number is not on record here.

In the test the target is T1, glucocorticoid receptor (Homo sapiens, UniProt P04150).
T1 construct: expressed in transfected cells
T1 sequence (P04150 524-758 limits assumed): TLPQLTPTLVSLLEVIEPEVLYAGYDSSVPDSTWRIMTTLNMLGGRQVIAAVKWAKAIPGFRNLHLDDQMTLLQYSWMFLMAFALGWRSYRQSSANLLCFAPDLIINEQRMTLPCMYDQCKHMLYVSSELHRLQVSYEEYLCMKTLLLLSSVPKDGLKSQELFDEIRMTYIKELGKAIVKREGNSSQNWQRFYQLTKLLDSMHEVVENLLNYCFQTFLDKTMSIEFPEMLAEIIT
Nature of the test: Agonistic mode of action on the glucocorticoid receptor (CHO-Gal4/GR luciferase reporter cell line). In kind it is cell-based. Conditions: range class observed in the agonistic assay or the antagonistic assay (CHO-Gal4/GR reporter cells); table does not say which mode applies per example. The method, boiled down:
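CHO cells stably carrying GAL4 DBD–GR ligand-binding-domain fusion and GAL4-UAS firefly luciferase reporter, 5000 cells/well grown 24 h, then compounds added in Opti-MEM at 8 half-log concentrations from 10 μM to 0.003 μM (0.5% DMSO), quadruplicates. Agonist-induced luminescence read on FLIPR Tetra; EC50 calculated.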
The molecule `COCCn1ccc2c(-c3c(F)cc4c(c3OC)-n3c(C)nnc3C(C)(C)N4)cc(F)cc21` [Example 351, 7-Fluoro-8-[6-fluoro-1-(2-methoxy-ethyl)-1H-indol-4-yl]-9-methoxy-1,4,4-trimethyl-5H-[1,2,4]triazolo [4,3-a]quinoxaline] showed an IC50 or EC50 (agonist or antagonist mode not specified) below 100 nM. On to `COCCn1ccc2c(-c3c(OC)cc4c(c3F)-n3c(C)nnc3C(C)(C)N4)cc(F)cc21` [Example 353, 9-Fluoro-8-[6-fluoro-1-(2-methoxy-ethyl)-1H-indol-4-yl]-7-methoxy-1,4,4-trimethyl-5H-[1,2,4]triazolo [4,3-a]quinoxaline], for which the IC50 or EC50 (agonist or antagonist mode not specified) was 1000 to 15000 nM. Molecule `Cc1n[nH]c2c(-c3c(F)cc4c(c3F)-n3c(C)nnc3C(C)(C)N4)cccc12` [Example 354, 7,9-Difluoro-1,4,4-trimethyl-8-(3-methyl-1H-indazol-7-yl)-5H-[1,2,4]triazolo[4,3-a]quinoxaline] displayed an IC50 or EC50 (agonist or antagonist mode not specified) of 100 to 1000 nM. To `Cc1cc2c(c(C)c1-c1cccc3c(C)c[nH]c13)-n1c(C)nnc1C(C)(C)N2` [Example 356, 1,4,4,7,9-Pentamethyl-8-(3-methyl-1H-indol-7-yl)-5H-[1,2,4]triazolo[4,3-a]quinoxaline] belongs below 100 nM. To `COc1cc2c(c(C(F)(F)F)c1-c1cccc3c(C)c[nH]c13)-n1c(C)nnc1C(C)(C)N2` [Example 357, 7-Methoxy-1,4,4-trimethyl-8-(3-methyl-1H-indol-7-yl)-9-(trifluoromethyl)-5H-[1,2,4]triazolo[4,3-a]quinoxaline] belongs below 100 nM; to `Cc1c(-c2cccc3c(C)c[nH]c23)c(Cl)cc2c1-n1c(C)nnc1C(C)(C)N2` [Example 358, 7-Chloro-1,4,4,9-tetramethyl-8-(3-methyl-1H-indol-7-yl)-5H-[1,2,4]triazolo[4,3-a]quinoxaline], below 100 nM; to `Cc1cc2c(c(F)c1-c1cccc3c(C)c[nH]c13)-n1c(C)nnc1C(C)(C)N2` [Example 359, 9-Fluoro-1,4,4,7-tetramethyl-8-(3-methyl-1H-indol-7-yl)-5H-[1,2,4]triazolo[4,3-a]quinoxaline], 100 to 1000 nM. As for `Cc1c(-c2cccc3c(C)c[nH]c23)c(OC(F)F)cc2c1-n1c(C)nnc1C(C)(C)N2` [Example 360, 7-(Difluoro-methoxy)-1,4,4,9-tetramethyl-8-(3-methyl-1H-indol-7-yl)-5H-[1,2,4]triazolo[4,3-a]quinoxaline], the IC50 or EC50 (agonist or antagonist mode not specified) was 100 to 1000 nM. As for `Cc1c(-c2cccc3c(C)n[nH]c23)c(F)cc2c1-n1c(C)nnc1C(C)(C)N2` [Example 361, 7-Fluoro-1,4,4,9-tetramethyl-8-(3-methyl-1H-indazol-7-yl)-5H-[1,2,4]triazolo[4,3-a]quinoxaline], the IC50 or EC50 (agonist or antagonist mode not specified) was in the range of 1000 to 15000 nM. In turn, `CCS(=O)(=O)n1ccc2c(-c3c(F)cc4c(c3OC)-n3c(C)nnc3C(C)(C)N4)cc(F)cc21` [Example 362, 8-[1-(Ethylsulfonyl)-6-fluoro-1H-indol-4-yl]-7-fluoro-9-methoxy-1,4,4-trimethyl-5H-[1,2,4]triazolo[4,3-a]quinoxaline] gave an IC50 or EC50 (agonist or antagonist mode not specified) below 100 nM.

As to `Cc1c(-c2cc(F)cc3c(C)c[nH]c23)c(Cl)cc2c1-n1c(C)nnc1C(C)(C)N2` [Example 363, 7-Chloro-8-(5-fluoro-3-methyl-1H-indol-7-yl)-1,4,4,9-tetramethyl-5H-[1,2,4]triazolo[4,3-a]quinoxaline], the IC50 or EC50 (agonist or antagonist mode not specified) was below 100 nM. For `Cc1cc2c(c(F)c1-c1cc(F)cc3c(C)c[nH]c13)-n1c(C)nnc1C(C)(C)N2` [Example 364, 9-Fluoro-8-(5-fluoro-3-methyl-1H-indol-7-yl)-1,4,4,7-tetramethyl-5H-[1,2,4]triazolo[4,3-a]quinoxaline], the IC50 or EC50 (agonist or antagonist mode not specified) lay within 100 to 1000 nM.

Regarding `Cc1c(-c2cc(F)cc3c(C)c[nH]c23)c(OC(F)F)cc2c1-n1c(C)nnc1C(C)(C)N2` [Example 365, 7-(Difluoro-methoxy)-8-(5-fluoro-3-methyl-1H-indol-7-yl)-1,4,4,9-tetramethyl-5H-[1,2,4]triazolo[4,3-a]quinoxaline], the IC50 or EC50 (agonist or antagonist mode not specified) was 1000 to 15000 nM.

`Cc1n[nH]c2c(-c3c(F)cc4c(c3C(F)F)-n3c(C)nnc3C(C)(C)N4)cccc12` [Example 367, 9-(Difluoro-methyl)-7-fluoro-1,4,4-trimethyl-8-(3-methyl-1H-indazol-7-yl)-5H-[1,2,4]triazolo[4,3-a]quinoxaline] yielded an IC50 or EC50 (agonist or antagonist mode not specified) of 100 to 1000 nM. The molecule `Cc1c(-c2cccc3c(C)n[nH]c23)c(Cl)cc2c1-n1c(C)nnc1C(C)(C)N2` [Example 368, 7-Chloro-1,4,4,9-tetramethyl-8-(3-methyl-1H-indazol-7-yl)-5H-[1,2,4]triazolo[4,3-a]quinoxaline] registered an IC50 or EC50 (agonist or antagonist mode not specified) of 100 to 1000 nM.

For `CCS(=O)(=O)n1ccc2c(-c3c(OC)cc4c(c3C(F)(F)F)-n3c(C)nnc3C(C)(C)N4)cc(F)cc21` [Example 369, 8-[1-(Ethylsulfonyl)-6-fluoro-1H-indol-4-yl]-7-methoxy-1,4,4-trimethyl-9-(trifluoromethyl)-5H-[1,2,4]triazolo[4,3-a]quinoxaline], the IC50 or EC50 (agonist or antagonist mode not specified) is 100 to 1000 nM. As for `CCS(=O)(=O)n1ccc2c(-c3c(OC)cc4c(c3C(F)(F)F)-n3c(C)nnc3C(C)(C)N4)cccc21` [Example 371, 8-[1-(Ethylsulfonyl)-1H-indol-4-yl]-7-methoxy-1,4,4-trimethyl-9-(trifluoromethyl)-5H-[1,2,4]triazolo[4,3-a]quinoxaline], the IC50 or EC50 (agonist or antagonist mode not specified) lay in the range of 100 to 1000 nM. To `CCS(=O)(=O)n1ccc2c(-c3c(F)cc4c(c3C)-n3c(C)nnc3C(C)(C)N4)cccc21` [Example 372, 8-[1-(Ethylsulfonyl)-1H-indol-4-yl]-7-fluoro-1,4,4,9-tetramethyl-5H-[1,2,4]triazolo[4,3-a]quinoxaline] belongs below 100 nM.

`Cc1cc2c(c(C)c1-c1cc(F)cc3c1cnn3S(C)(=O)=O)-n1c(C)nnc1C(C)(C)N2` [Example 373, 8-(6-Fluoro-1-methylsulfonyl-1H-indazol-4-yl)-1,4,4,7,9-pentamethyl-5H-[1,2,4]triazolo[4,3-a]quinoxaline] came in with an IC50 or EC50 (agonist or antagonist mode not specified) of 100 to 1000 nM. To `COc1cc2c(c(C(F)(F)F)c1-c1cc(F)cc3c1cnn3S(C)(=O)=O)-n1c(C)nnc1C(C)(C)N2` [Example 376, 8-(6-Fluoro-1-methylsulfonyl-1H-indazol-4-yl)-7-methoxy-1,4,4-trimethyl-9-(trifluoromethyl)-5H-[1,2,4]triazolo[4,3-a]quinoxaline] belongs 1000 to 15000 nM; to `Cc1c(-c2cccc3c2cnn3S(C)(=O)=O)c(F)cc2c1-n1c(C)nnc1C(C)(C)N2` [Example 377, 7-Fluoro-1,4,4,9-tetramethyl-8-(1-methylsulfonyl-1H-indazol-4-yl)-5H-[1,2,4]triazolo[4,3-a]quinoxaline], 100 to 1000 nM; to `COc1c(-c2cc(F)cc3c2ccn3CCO)c(F)cc2c1-n1c(C)nnc1C(C)(C)N2` [Example 380, 2-[6-Fluoro-4-(7-fluoro-9-methoxy-1,4,4-trimethyl-5H-[1,2,4]triazolo [4,3-a]quinoxalin-8-yl)-1H-indol-1-yl]-ethanol], 1000 to 15000 nM.

In the case of `COc1c(-c2cccc3c(C)n[nH]c23)c(F)cc2c1-n1c(C)nnc1C(C)(C)N2` [Example 381, 7-Fluoro-9-methoxy-1,4,4-trimethyl-8-(3-methyl-1H-indazol-7-yl)-5H-[1,2,4]triazolo[4,3-a]quinoxaline], the IC50 or EC50 (agonist or antagonist mode not specified) lay in the range of 1000 to 15000 nM. `Cc1nnc2n1-c1c(cc(F)c(-c3cccc4c3cnn4S(C)(=O)=O)c1C(F)F)NC2(C)C` [Example 382, 9-(Difluoro-methyl)-7-fluoro-1,4,4-trimethyl-8-(1-methylsulfonyl-1H-indazol-4-yl)-5H-[1,2,4]triazolo[4,3-a]quinoxaline] displayed an IC50 or EC50 (agonist or antagonist mode not specified) of 1000 to 15000 nM. Regarding `Cc1nnc2n1-c1c(cc(F)c(-c3cccc4c3ccn4CCN(C)C)c1F)NC2(C)C` [Example 383, [2-[4-(7,9-Difluoro-1,4,4-trimethyl-5H-[1,2,4]triazolo[4,3-a]quinoxalin-8-yl)-1H-indol-1-yl]-ethyl]-dimethyl-amine], the IC50 or EC50 (agonist or antagonist mode not specified) fell in the range of 1000 to 15000 nM. With `Cc1c(-c2cccc3c2ccn3CC(F)F)c(OC(F)F)cc2c1-n1c(C)nnc1C(C)(C)N2` [Example 384, 8-[1-(2,2-Difluoro-ethyl)-1H-indol-4-yl]-7-(difluoro-methoxy)-1,4,4,9-tetramethyl-5H-[1,2,4]triazolo[4,3-a]quinoxaline] the figure was 1000 to 15000 nM; with `Cc1nnc2n1-c1c(cc(C(F)F)c(-c3cc(F)cc4c3ccn4CCO)c1F)NC2(C)C` [Example 385, 2-[4-[7-(Difluoro-methyl)-9-fluoro-1,4,4-trimethyl-5H-[1,2,4]triazolo [4,3-a]quinoxalin-8-yl]-6-fluoro-1H-indol-1-yl]-ethanol], 1000 to 15000 nM; with `Cc1c(-c2cccc3c2cnn3S(C)(=O)=O)c(Cl)cc2c1-n1c(C)nnc1C(C)(C)N2` [Example 386, 7-Chloro-1,4,4,9-tetramethyl-8-(1-methylsulfonyl-1H-indazol-4-yl)-5H-[1,2,4]triazolo[4,3-a] quinoxaline], 1000 to 15000 nM.
